Results taken from publication PMC8662641, “Site-Specific Labeling of Endogenous Proteins Using CoLDR Chemistry” (Journal of the American Chemical Society, 2021).

Legend:
BTK-1h = target: T1, BTK-1h (Homo sapiens, UniProt Q06187); experiment: High-throughput screening with 1h-labeled BTK; type: binding
T1 construct: The BTK kinase domain was diluted to 2 μM in the buffer, and 2 μM 1h was added; made in house
Protocol: The collection was composed of BTK binding compounds obtained in our previous luminescence screen[37] (Data set S2). […] The resulting BTK-1h (50 μL) was added to the inhibitors.

BTK = BTK (Homo sapiens, UniProt Q06187); set-up: BTK kinase domain was expressed and purified as previously reported; made in house; method as in Reddi et al., J. Am. Chem. Soc. 2021, 143 (13), 4979–4992; settings: ref Reddi et al., J. Am. Chem. Soc. 2021, 143 (13), 4979–4992; cited from earlier work
Chain of BTK (Q06187 402-655 limits assumed): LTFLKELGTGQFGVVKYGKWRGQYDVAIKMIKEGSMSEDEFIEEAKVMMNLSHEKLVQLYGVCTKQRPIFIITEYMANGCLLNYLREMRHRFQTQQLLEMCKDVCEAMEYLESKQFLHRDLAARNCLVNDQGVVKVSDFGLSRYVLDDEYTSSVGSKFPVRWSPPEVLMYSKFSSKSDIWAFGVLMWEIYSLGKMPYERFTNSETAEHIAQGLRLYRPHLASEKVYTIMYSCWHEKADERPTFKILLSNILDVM

[1] = Dataset S2A, 200 μM compound, BTK-1h, 32 °C, 10 min

T1 sequence (Q06187 402-655): as the sequence (Q06187 402-655 limits assumed) above

FI (650)/FI (620) (BTK-1h; [1])	FI (BTK-1h)/FI (BTK-1h+Inhibitor) at 620 nm (BTK-1h; [1])	FI (650)/FI (620) (BTK-1h; Dataset S2C, BTK-1h with inhibitor)	FI (BTK-1h)/FI (BTK-1h+Inhibitor) at 620 nm (BTK-1h; Dataset S2B, 200 μM inhibitor added to BTK-1h (2 μm))	SMILES	BTK Inhibition reported in luminescence assay* (BTK)
2.04	1.441			Cn1cc(-c2[nH]c3cc(NC(=O)[C@H](N)C4CCCCC4)cc4c3c2C=NNC4=O)cn1 [PCM-0095372-002]	111
2.134	0.9621			COc1cc(/C=C/C(=O)CC(=O)/C=C/c2ccc(O)cc2)ccc1O [PCM-0216521-001]	110.4
0.8577	1.025			COC[C@H]1C[C@@H](c2ncc(-c3ccc4c(c3)COc3cc5c(ccc6[nH]c([C@@H]7CC[C@H](C)N7C(=O)[C@@H](NC(=O)OC)C(C)C)nc65)cc3-4)[nH]2)N(C(=O)[C@H](NC(=O)OC)c2ccccc2)C1 [PCM-0214920-001]	56
1.357	1.072			COC(=O)C1=C(C)NC(C)=C(C(=O)OCCN2CCN(C(c3ccccc3)c3ccccc3)CC2)C1c1cccc([N+](=O)[O-])c1.Cl.Cl (centres unmarked) [PCM-0090281-005]	101.2
0.9721	1.036			CCOc1cc2ncc(C#N)c(Nc3ccc(F)c(Cl)c3)c2cc1NC(=O)/C=C/CN(C)C [PCM-0095063-002]	96.6
1.034	1.021			Cc1ccccc1C(=O)Nc1ccc(C(=O)N2CCCC(N(C)C)c3ccccc32)cc1 (centres unmarked) [PCM-0095424-002]	70
1.089	1.079			COc1cc2c(Nc3ccc(NC(=O)c4ccccc4)cc3)ncnc2cc1OCCCN1CCOCC1 [PCM-0094881-002]	77.9
1.1262	1.0184			CC1=C(C(=O)OC(C)C)C(c2cccc([N+](=O)[O-])c2)C(C(=O)OC2CN(C(c3ccccc3)c3ccccc3)C2)=C(N)N1 (centres unmarked) [PCM-0095544-002]	70
2.745	2.341	2.341		CN(C)C/C=C/C(=O)Nc1ccc(C(=O)Nc2cccc(Nc3ncc(Cl)c(-c4c[nH]c5ccccc45)n3)c2)cc1 [PCM-0213464-002, THZ1 2HCl]	116.6
1.024	1.031			C#CC[C@H](c1nc2cc(Cl)ccc2c(=O)n1Nc1ccccc1)N(CCCN)C(=O)c1cccc(Cl)c1F [PCM-0095802-002]	52.5
2.028	1.072			O=c1cc(-c2ccccc2)oc2cc(O)c(O)c(O)c12 [PCM-0214670-001]	79.4
1.026	1.04			CN(CC(=O)N(Cc1ccc(C2CCCCC2)cc1)c1ccc(C(=O)O)cc1)S(=O)(=O)c1c(F)c(F)c(F)c(F)c1F [PCM-0095763-002]	68.7
7.1	1.02		7.1	O=[N+]([O-])c1ccc(Sc2cccc[n+]2[O-])c2nonc12 [PCM-0215705-001, NSC228155]	73.4
1.3013	1.347			O=C(O)C1(Cc2cccc(Nc3nccs3)n2)CCC(Oc2cccc(Cl)c2F)CC1 (centres unmarked) [PCM-0095334-002]	102.1
1.449	1.019			Cl.Cl.O=C1c2c(O)ccc(O)c2C(=O)c2c(NCCNCCO)ccc(NCCNCCO)c21 [PCM-0065547-003]	51
1.046	1.04			C=CC(=O)N1CC[C@@H](Oc2nc(Nc3ccc(N4CCC(N5CCN(C)CC5)CC4)cc3)c(C(N)=O)nc2CC)C1 [PCM-0215788-001]	91
0.7724	1.097			CN[C@H]1C(=O)N[C@@H]2Cc3ccc(cc3)Oc3cc4cc(c3O[C@@H]3O[C@H](C(=O)O)[C@@H](O)[C@H](O)[C@H]3NC(=O)CCCCCCCCC(C)C)Oc3ccc(cc3Cl)[C@@H](O)[C@@H]3NC(=O)[C@H](NC(=O)[C@@H]4NC(=O)[C@@H](NC2=O)c2cc(cc(O)c2Cl)Oc2cc1ccc2O)c1ccc(O)c(c1)-c1c(O[C@H]2O[C@H](CO)[C@@H](O)[C@H](O)[C@@H]2O)cc(O)cc1[C@@H](C(=O)NCCCN(C)C)NC3=O [PCM-0215113-001]	73.2

FI (650)/FI (620) (BTK-1h; [1])	FI (BTK-1h)/FI (BTK-1h+Inhibitor) at 620 nm (BTK-1h; [1])	FI (650)/FI (620) (BTK-1h; Dataset S2C, BTK-1h with inhibitor)	FI (BTK-1h)/FI (BTK-1h+Inhibitor) at 620 nm (BTK-1h; Dataset S2B, 200 μM inhibitor added to BTK-1h (2 μm))	SMILES	BTK Inhibition reported in luminescence assay* (BTK)
0.9109	1.037			CC(=O)O[C@@H]1CC[C@@]2(C)[C@@H](CC[C@]3(C)[C@@H]2C(=O)C=C2[C@@H]4[C@@H](C)[C@H](C)CC[C@]4(C)CC[C@]23C)[C@@]1(C)C(=O)O [PCM-0216599-001]	88
0.9335	1.115			Cl.Cl.Cl.O[C@@H](COc1cccc2ncccc12)CN1CCN(C2c3ccccc3[C@@H]3[C@H](c4ccccc42)C3(F)F)CC1 (some centres unmarked) [PCM-0095161-003]	102.7
0.7503	1.048			C[C@@H]1O[C@@H](O[C@H]2[C@H](O[C@H]3CC[C@@]4(C)[C@@H](CC[C@]5(C)[C@@H]4CC=C4[C@@H]6CC(C)(C)CC[C@]6(C(=O)O)CC[C@]45C)[C@]3(C)CO)OC[C@H](O[C@@H]3O[C@H](CO)[C@@H](O)[C@H](O)[C@H]3O)[C@@H]2O)[C@H](O)[C@H](O)[C@H]1O [PCM-0216539-001]	52.5
1.1367	1.0338			Cc1c(C(=O)Nc2ccc(Oc3ccnc4[nH]cc(-c5ccccc5)c34)c(F)c2)c(=O)n(-c2ccc(F)cc2)n1C [PCM-0215493-001]	95.9
0.9224	1.025			COc1cc(C[C@H](C)[C@H](C)Cc2ccc3c(c2)OCO3)ccc1O [PCM-0216424-001]	68.7
0.8983	1.05			COC(=O)N[C@H](C(=O)N1CC2(CC2)C[C@H]1c1ncc(-c2ccc3c(c2)C(F)(F)c2cc(-c4ccc5nc([C@@H]6[C@H]7CC[C@H](C7)N6C(=O)[C@@H](NC(=O)OC)C(C)C)[nH]c5c4)ccc2-3)[nH]1)C(C)C [PCM-0215396-001]	74.9
1.085	1.022			COc1c(O)c(C)cc2c1C(=O)c1c(O)cccc1C2=O [PCM-0216457-001]	64.1
1.0597	1.03			O=C(/C=C/c1ccc(O)c(O)c1)c1ccc(O)cc1O [PCM-0095622-002]	55.2
0.9815	1.0289			COc1ccc(-c2nc(-c3cc(C(F)(F)F)cc(C(F)(F)F)c3)n(Cc3ccc(C(N)=O)cc3)c2-c2ccc(OC)cc2)cc1 [PCM-0215748-001]	57.1
1.616	1.107			Nc1cccc(-c2cc3c(Oc4cccc(O)c4)ncnc3[nH]2)c1 [PCM-0095147-003]	82.1
1.111	1.004			C=CC(=O)N1CCN(C(=O)CNc2cc(I)c(Cl)cc2O)CC1 [PCM-0215367-001]	84.9
1.037	1.095			NCC(=O)Nc1ccc(-n2nc(C(F)(F)F)cc2-c2ccc3c(ccc4ccccc43)c2)cc1 [PCM-0094886-003]	70.3
1.13	1.0065			CC1(C)C=Cc2c(ccc3c2OC[C@@H](c2ccc(O)cc2O)C3)O1 [PCM-0214974-001]	70.3
1.274	1.071			Cc1nc(N)sc1-c1ccnc(Nc2ccc(N3CCOCC3)cc2)n1 [PCM-0095025-002]	57.2
1.174	1.002			Cl.N/C(=N\N=C\c1ccc(Cl)cc1)N/N=C/c1ccc(Cl)cc1 [PCM-0215125-001]	77.8
1.4774	1.04			CN1CCN(Cc2ccc(-c3cnc4[nH]cc(-c5ccc6[nH]ccc6c5)c4c3)cc2)CC1 [PCM-0215377-001]	111
1.009	1.056			CC#CC(=O)Nc1ccc2ncnc(Nc3cccc(Br)c3)c2c1 [PCM-0215449-001]	102.8

SMILES	FI (650)/FI (620) (BTK-1h; [1])	FI (BTK-1h)/FI (BTK-1h+Inhibitor) at 620 nm (BTK-1h; [1])	FI (650)/FI (620) (BTK-1h; Dataset S2C, BTK-1h with inhibitor)	FI (BTK-1h)/FI (BTK-1h+Inhibitor) at 620 nm (BTK-1h; Dataset S2B, 200 μM inhibitor added to BTK-1h (2 μm))	BTK Inhibition reported in luminescence assay* (BTK)
CC1=C(O)C(=O)C=C2C1=CC=C1[C@@]2(C)CC[C@@]2(C)[C@@H]3C[C@](C)(C(=O)O)CC[C@]3(C)CC[C@]12C [PCM-0214611-001]	0.9422	1.014			67.7
